The subject of one assay is MM.1S cells. As to the kind of experiment: Inhibitory effect on the proliferation of MM.1S, MTS cell viability test. It counts as cell-based. The conditions noted are these: multiple myeloma MM.1S cells, 7 days incubation, read-out: Tumor cell inhibitory activity. In short, it runs like this: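 MM.1S cells (20,000/well, RPMI 1640 with 10% FBS) exposed to 5-fold compound dilutions at 0.2% DMSO for 7 days at 37° C, 5% CO2. MTS added for 3-4 h; OD490-OD690 gave inhibition versus DMSO, IC50 fitted, mean of three experiments.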
(Tetrazolium dyes change colour on reduction, which living cells bring about.)

Another assay relates to MV-4-11 cells. As to the kind of experiment: Inhibitory effect on the proliferation of MV-4-11 cells, MTS cell viability test. It counts as cell-based. To be noted: acute leukemia MV-4-11 cells, 7 days incubation, read-out: Tumor cell inhibitory activity. On the procedure:
Method of tumor cell proliferation inhibition test: the inventors tested all the example compounds on hematologic tumor cells, multiple myeloma MMTs cell line and acute leukemia cell MV-4-11 cell line of some examples. The activity test method and results are as follows.
2. The Inhibitory Effect of Compounds on the Proliferation of MV-4-11 Cells, MTS Cell Viability Test: 1). Experimental Method:
MV-4-11 cells were cultured and collected with IMDM and 10% fetal bovine serum. The cell concentration was diluted according to 7 days, and 180 ul of cell suspension was added to each well of a 96-well cell plate to 2000 cells. 20 ul of DMSO with a final concentration of 0.2% was added to the control wells. The compound was diluted 5-fold from the 10 mM stock solution, and 20 ul was also added to the compound cell wells (the final concentration of DMSO was 0.2%). The cells were placed in a 37° C., 5% CO2 incubator and incubated for 7 days. After the reaction solution was prepared according to the MTS kit (Promega, G5430), 20 μL was added to each well, incubated in a 37° C., 5% CO2 incubator for 3-4 h. The 490 nm absorbance value was read with a microtiter plate, and the 690 nm absorbance value was used as the background value. OD490-OD690 was used as the final initial data. The formula for calculating the inhibition rate of the compound was: inhibition rate=(ODDMSO-ODcompound)/(ODDMSO-Oblank)×100%. The compound's proliferation inhibition IC50 was fitted by Graph Pad Prism 5.0. The experiment was repeated three times, and the average and standard deviation was calculated according to three parallel experiments each time.

Molecules are shown by their SMILES. pIC50: −log10 of the molar value. Read-outs that look alike come from different tables or passages of the source. Some results are limits rather than exact numbers.

Consider `Cc1nc2cccc(N)c2c(=O)n1C1CCC(=O)NC1=O` (stereo not shown) [CC-122, reference compound], for which the pIC50 with MM.1S cells (Homo sapiens, MM1.S, 168 h) is > 7.00; in the assay with MV-4-11 cells (Homo sapiens, MV4-11, 168 h), < 4.70. The corresponding values for `O=C1CCC(N2Cc3c(OCc4ccc(CN5CCOCC5)cc4)cccc3C2=O)C(=O)N1` (stereo not shown) [CC-220, reference compound] are > 7.00 and < 4.70. As to `O=C1CCC(N2Cc3c(CCCCCN4CCC(c5noc6cc(F)ccc56)CC4)cccc3C2=O)C(=O)N1` (stereo not shown) [Example 22, 3-(4-(5-(4-(6-fluorobenzo[d]isoxazole-3-)piperidine-1-)pentyl)-1-oxoisoindoline-2-)piperidine-2,6-dione], the pIC50 in the assay with MM.1S cells is > 7.00; in the assay on MV-4-11 cells, 6.96. On to `N#CC1(c2cccc(Cl)c2)CCN(CCCCCc2cccc3c2CN(C2CCC(=O)NC2=O)C3=O)CC1` (stereo not shown) [Example 51, 4-(3-chlorophenyl)-1-(5-(2-(2,6-dioxopiperidine-3-)-1-oxoisoindoline-4-)pentyl) piperidine-4-carbonitrile], for which the pIC50 is > 7.00 in the assay with MM.1S cells (Homo sapiens, MM1.S, 168 h) and 6.24 with MV-4-11 cells (Homo sapiens, MV4-11, 168 h). With `O=C1CCC(N2Cc3c(CCCCCN4CCc5ccccc54)cccc3C2=O)C(=O)N1` (stereo not shown) [Example 107, 3-(4-(5-(indoline-1-)pentyl)-1-oxoisoindoline-2-)piperidine-2,6-dione], the pIC50 in the assay with MM.1S cells (Homo sapiens, MM1.S, 168 h) was > 7.00; with MV-4-11 cells (Homo sapiens, MV4-11, 168 h), 6.74.

Consider `O=C1CCC(N2Cc3c(CCCCCN4CCc5ccc(Br)cc54)cccc3C2=O)C(=O)N1` (stereo not shown) [Example 114, 3-(4-(5-(5-bromoindoline-1-)pentyl)-1-oxoisoindoline-2-)piperidine-2,6-dione], for which the pIC50 in the assay with MM.1S cells (Homo sapiens, MM1.S, 168 h) is 6.00 to 7.00; with MV-4-11 cells (Homo sapiens, MV4-11, 168 h), 6.66.

Regarding `O=C1CCC(N2Cc3c(CCCCCN4CCC5(CC4)OCc4cc(F)ccc45)cccc3C2=O)C(=O)N1` (stereo not shown) [Example 273, 3-(4-(5-(5-fluoro-3H-spiro[isobenzofuran-1,4′-piperidine]-1′-)pentyl)-1-oxoisoindoline-2-yl)piperidine-2,6-dione], the pIC50 in the assay on MM.1S cells (Homo sapiens, MM1.S, 168 h) is 6.00 to 7.00. Turning to `O=C1CCC(N2Cc3c(CCCCCN4CCC5(CC4)OCc4cc(Cl)ccc45)cccc3C2=O)C(=O)N1` (stereo not shown) [Example 274, 3-(4-(5-(5-chloro-3H-spiro[isobenzofuran-1,4′-piperidin]-1-yl)pentyl)-1-oxoisoindoline-2-yl)piperidine-2,6-dione], in the assay with MM.1S cells (Homo sapiens, MM1.S, 168 h), the pIC50 is 6.00 to 7.00. As to `O=C1CCC(N2Cc3c(CCCCCN4CCC5(CC4)C(=O)Nc4cccc(Cl)c45)cccc3C2=O)C(=O)N1` (stereo not shown) [Example 276, 3-(4-(5-(4-chloro-2-oxospiro[dihydroindole-3,4-piperidin]-1-yl)pentyl)-1-oxoisoindoline-2-yl)piperidine-2,6-dione], in the assay with MM.1S cells (Homo sapiens, MM1.S, 168 h), the pIC50 is 6.00 to 7.00. With `O=C1CCC(N2Cc3c(CCCCCN4CCC5(CC4)OC(=O)Nc4ccc(Cl)cc45)cccc3C2=O)C(=O)N1` (stereo not shown) [Example 277, 3-(4-(5-(6-chloro-2-oxo-1,2-dihydrospiro[benzo[1,3]oxazine-4,4′-piperidine]-1′-yl)pentyl)-1-oxoisoindolin-2-yl)piperidine-2,6-dione], the pIC50 with MM.1S cells (Homo sapiens, MM1.S, 168 h) was 6.00 to 7.00. With `O=C1CCC(N2Cc3c(CCCCCN4CCC5(CC4)C(=O)Nc4ccc(F)cc45)cccc3C2=O)C(=O)N1` (stereo not shown) [Example 278], the pIC50 with MM.1S cells (Homo sapiens, MM1.S, 168 h) was 6.00 to 7.00. With `O=C1CCC(N2Cc3c(CCCCCN4CCC5(CC4)C(=O)Nc4c(Cl)cccc45)cccc3C2=O)C(=O)N1` (stereo not shown) [Example 279, 3-(4-(5-(7-chloro-2-oxospiro[dihydroindole-3,4-piperidin]-1-yl)pentyl)-1-oxoisoindoline-2-yl)piperidine-2,6-dione], the pIC50 in the assay with MM.1S cells (Homo sapiens, MM1.S, 168 h) is 6.00 to 7.00. Consider `O=C1CCC(N2Cc3c(CCCCCN4CCC5(CC4)OCc4c(Cl)cccc45)cccc3C2=O)C(=O)N1` (stereo not shown) [Example 280, 3-(4-(5-(4-chloro-3H-spiro[isobenzofuran-1,4′-piperidin]-1-yl)pentyl)-1-oxoisoindoline-2-yl)piperidine-2,6-dione], for which the pIC50 in the assay on MM.1S cells (Homo sapiens, MM1.S, 168 h) was 6.00 to 7.00.

The record behind these values is patent US12459921B2, “Isoindoline compound, preparation method, pharmaceutical composition and use thereof” (SHANGHAI INSTITUTE OF MATERIA MEDICA, CHINESE ACADEMY OF …, priority 2018, dated 2025).
